Laboratory results: BindingDB's records for doi:10.1021/jm00065a013 (Washington University, 1993)
*1 amine or outer side, *2 acyl side, *3 side chain or, on linkers, in order; H or OH if unused. Where a SMILES comes first, the peptide text is derived from it. Bridges are numbered along the chain shown (N, C = ends). Roman numbers before positions name the chains, in order. [ ]: non-standard residue; d: D form. Pro(4R-SH) = O=C([C@@H]1C[C@@H](S[*:3])CN1[*:1])[*:2]; Pro(4S-SH) = O=C([C@@H]1C[C@H](S[*:3])CN1[*:1])[*:2]; hCys = N[C@@H](CCS)C(=O)O; Sar = CNCC(=O)O

Biological target: Type-2 angiotensin II receptor (Oryctolagus cuniculus)
Assay: In vitro binding affinity at angiotensin II (type 2) receptor in rabbit uterus.

`CNCC(=O)N[C@@H](CCCN=C(N)N)C(=O)N[C@H]1CSSC[C@@H](C(=O)N[C@@H](Cc2c[nH]cn2)C(=O)N2CCC[C@H]2C(=O)N[C@@H](Cc2ccccc2)C(=O)O)NC(=O)[C@H](Cc2ccc(O)cc2)NC(=O)[C@@H](NC(=O)[C@H](CCCN=C(N)N)NC(=O)CNC)CSSC[C@@H](C(=O)N[C@@H](Cc2c[nH]cn2)C(=O)N2CCC[C@H]2C(=O)N[C@@H](Cc2ccccc2)C(=O)O)NC(=O)[C@H](Cc2ccc(O)cc2)NC1=O` [bis-c[Sar1-Arg2-Cys3-Tyr4-Cys5-His6-Pro7-Phe8](antiparallel)] (I: H-[Sar]RCYCHPF-OH / II: H-[Sar]RCYCHPF-OH; disulfide I:3-II:5, I:5-II:3) was tested, and the IC50 was 65 nM.
In the case of `CNCC(=O)N[C@@H](CCCNC(=N)N)C(=O)N[C@H]1CSS[C@@H]2C[C@@H](C(=O)N[C@@H](Cc3cnc[nH]3)C(=O)N3CCC[C@H]3C(=O)N[C@@H](Cc3ccccc3)C(=O)O)N(C2)C(=O)[C@H](Cc2ccc(O)cc2)NC1=O` [c[Sar1-Arg2-Cys3-Tyr4-MPt5-His6-Pro7-Phe8]] (H-[Sar]RCY[Pro(4R-SH)]HPF-OH; disulfide 3-5), the IC50 is reported as 0.82 nM.
`CNCC(=O)N[C@@H](CCCNC(=N)N)C(=O)N[C@H]1CCSSCC[C@@H](C(=O)N[C@@H](Cc2cnc[nH]2)C(=O)N2CCC[C@H]2C(=O)N[C@@H](Cc2ccccc2)C(=O)O)NC(=O)[C@H](Cc2ccc(O)cc2)NC1=O` [2-({1-[2-{[11-[5-Guanidino-2-(2-methylamino-acetylamino)-pentanoylamino]-8-(4-hydroxy-benzyl)-7,10-dioxo-1,2-dithia-6,9-diaza-cyclotridecane-5-carbonyl]-amino}-3-(3H-imidazol-4-yl)-propionyl]-pyrrolidine-2-carbonyl}-amino)-3-phenyl-propionic acid] (H-[Sar]R[hCys]Y[hCys]HPF-OH; disulfide 3-5) showed an IC50 of 80 nM.
Work on `CNCC(=O)N[C@@H](CCCNC(=N)N)C(=O)N1C[C@@H]2C[C@H]1C(=O)N[C@@H](Cc1ccc(O)cc1)C(=O)N[C@H](C(=O)N[C@@H](Cc1cnc[nH]1)C(=O)N1CCC[C@H]1C(=O)N[C@@H](Cc1ccccc1)C(=O)O)CSS[C@H]1C[C@@H](C(=O)N[C@@H](Cc3ccc(O)cc3)C(=O)N[C@H](C(=O)N[C@@H](Cc3cnc[nH]3)C(=O)N3CCC[C@H]3C(=O)N[C@@H](Cc3ccccc3)C(=O)O)CSS2)N(C(=O)[C@H](CCCNC(=N)N)NC(=O)CNC)C1` [bis c[Sar1-Arg2-MPc3-Tyr4-Cys5-His6-Pro7-Phe8]antiparallel] (I: H-[Sar]R[Pro(4S-SH)]YCHPF-OH / II: H-[Sar]R[Pro(4S-SH)]YCHPF-OH; disulfide I:3-II:5, I:5-II:3) yielded an IC50 of 25 nM.
`CNCC(=O)N[C@@H](CCCNC(=N)N)C(=O)N1C[C@@H]2C[C@H]1C(=O)N[C@@H](Cc1ccc(O)cc1)C(=O)N[C@H](C(=O)N[C@@H](Cc1cnc[nH]1)C(=O)N1CCC[C@H]1C(=O)N[C@@H](Cc1ccccc1)C(=O)O)CSS2` [c[Sar1-Arg2-MPc3-Tyr4-Cys5-His6-Pro7-Phe8]] (H-[Sar]R[Pro(4S-SH)]YCHPF-OH; disulfide 3-5) was tested, and the IC50 was 12 nM.
For `CNCC(=O)N[C@@H](CCCNC(=N)N)C(=O)N[C@H]1CCSS[C@H]2C[C@@H](C(=O)N[C@@H](Cc3cnc[nH]3)C(=O)N3CCC[C@H]3C(=O)N[C@@H](Cc3ccccc3)C(=O)O)N(C2)C(=O)[C@H](Cc2ccc(O)cc2)NC1=O` [c[Sar1-Arg2-Hcy3-Tyr4-MPc5-His6-Pro7-Phe8]] (H-[Sar]R[hCys]Y[Pro(4S-SH)]HPF-OH; disulfide 3-5), the IC50 was 9.1 nM.
In the case of `CNCC(=O)N[C@@H](CCCN=C(N)N)C(=O)N[C@H]1CC(=O)NCCCC[C@@H](C(=O)N[C@@H](Cc2c[nH]cn2)C(=O)N2CCC[C@H]2C(=O)N[C@@H](Cc2ccccc2)C(=O)O)NC(=O)[C@H](Cc2ccc(O)cc2)NC1=O` [c[Sar1-Arg2-Asp3-Tyr4-Lys5-His6-Pro7-Phe8]] (H-[Sar]RDYKHPF-OH; lactam 3-5), the IC50 is reported as 86 nM.
In the case of `CNCC(=O)N[C@@H](CCCNC(=N)N)C(=O)N1C[C@@H]2C[C@H]1C(=O)N[C@@H](Cc1ccc(O)cc1)C(=O)N[C@H](C(=O)N[C@@H](Cc1cnc[nH]1)C(=O)N1CCC[C@H]1C(=O)N[C@@H](Cc1ccccc1)C(=O)O)CSSC[C@H](C(=O)N[C@H](Cc1cnc[nH]1)C(=O)N1CCC[C@@H]1C(=O)N[C@H](Cc1ccccc1)C(=O)O)NC(=O)[C@@H](Cc1ccc(O)cc1)NC(=O)[C@H]1C[C@H](CN1C(=O)[C@@H](CCCNC(=N)N)NC(=O)CNC)SS2` [bis c[Sar1-Arg2-MPc3-Tyr4-Cys5-His6-Pro7-Phe8]parallel], the IC50 is reported as 23 nM.
